Like-named read-outs stand apart in the source and are kept apart here.
Tests used:
[1] = tested on: Phytophthora infestans strain Pi96; assay type: in vivo
[2] = Water solubility at different pH values; assay type: physicochemical; settings: for solubility: water
Text: The results are compiled in the table here below:

[3] = 0.1 M carbonate buffer in water, aqueous buffer, pH 7, buffer 0.1M Carbonate
[4] = 0.1 M citrate buffer in water, aqueous buffer, pH 4, buffer 0.1M Citrate
[5] = 0.1 M glycine buffer in water, aqueous buffer, pH 10, buffer 0.1M Glycine

CCCCCCCCCCCCCCCCCC[S+](C)C.[Cl-] [ODS-Cl, octadecyl dimethyl sulfonium chloride]
Disease Severity Index (%) ([1]; 10 ppm, 3 dpi): 10.3%
Disease Severity Index (%) ([1]; 10 ppm, 5 dpi): 18.3%
Disease Severity Index (%) ([1]; 10 ppm, 7 dpi): 39.7%
Disease Severity Index (%) ([1]; 10 ppm, 10 dpi): 97.8%
Fungicide efficacy (%) at 10 dpi ([1]; 10 ppm, 10 dpi): 0.0%
Disease Severity Index (%) ([1]; 50 ppm, 3 dpi): 8.7%
Disease Severity Index (%) ([1]; 50 ppm, 5 dpi): 15.6%
Disease Severity Index (%) ([1]; 50 ppm, 7 dpi): 40.0%
Disease Severity Index (%) ([1]; 50 ppm, 10 dpi): 89.4%
Fungicide efficacy (%) at 10 dpi ([1]; 50 ppm, 10 dpi): 0.0%
Disease Severity Index (%) ([1]; 100 ppm, 3 dpi): 5.5%
Disease Severity Index (%) ([1]; 100 ppm, 5 dpi): 11.1%
Disease Severity Index (%) ([1]; 100 ppm, 7 dpi): 27.8%
Disease Severity Index (%) ([1]; 100 ppm, 10 dpi): 71.8%
Fungicide efficacy (%) at 10 dpi ([1]; 100 ppm, 10 dpi): 12.5%
Disease Severity Index (%) ([1]; 500 ppm, 3 dpi): 0.0%
Disease Severity Index (%) ([1]; 500 ppm, 5 dpi): 0.0%
Disease Severity Index (%) ([1]; 500 ppm, 7 dpi): 0.0%
Disease Severity Index (%) ([1]; 500 ppm, 10 dpi): 0.0%
Fungicide efficacy (%) at 10 dpi ([1]; 500 ppm, 10 dpi): 100.0%
Disease Severity Index (%) ([1]; 1000 ppm, 3 dpi): 0.0%
Disease Severity Index (%) ([1]; 1000 ppm, 5 dpi): 0.0%
Disease Severity Index (%) ([1]; 1000 ppm, 7 dpi): 0.0%
Disease Severity Index (%) ([1]; 1000 ppm, 10 dpi): 0.0%
Fungicide efficacy (%) at 10 dpi ([1]; 1000 ppm, 10 dpi): 100.0%
control of the disease (late blight) ([1]; 1000 ppm, preventive treatment): full control
dose from which efficient to protect potato leaves against late blight ([1]; preventive treatment, detached potato leaves): ≥ 100 ppm
solubility [2, 3]: 280 µg/mL
solubility [2, 4]: 1320 µg/mL
solubility [2, 5]: 940 µg/mL
solubility in water compared with octadecyl dimethyl sulfonium iodide ([2]; comparison chloride vs iodide): higher solubility in water
pH at which the water solubility has a minimum ([2]; solubility increases below and above this pH): ~7.0
solubility ([2]; pH 2.2, aqueous buffer): 1650 µg/mL

CCCCCCCCCCCCCCCCCC[S+](C)C.[I-] [ODS-I, octadecyl dimethyl sulfonium iodide, reference compound]
solubility [2, 3]: 80 µg/mL
solubility [2, 4]: 290 µg/mL
solubility [2, 5]: 30 µg/mL
solubility ([2]; pH 5.5, aqueous buffer): 120 µg/mL
